Earlier results as cited in PMC4522190 (ChemistryOpen, 2015).

System: proteases
Details: statement without data

## cyclo-RRRWFW (head to tail) [c-WFW]
  metabolic stability against proteases (in words): good metabolic stability against proteases
